Assay results taken from PMC5372246, “Co-production of hydrogen and ethanol from glucose in Escherichia coli by activation of pentose-phosphate pathway through deletion of phosphoglucose isomerase (pgi) and overexpression of glucose-6-phosphate dehydrogenase (zwf) and 6-phosphogluconate dehydrogenase (gnd)” (Biotechnology for Biofuels, 2017).

Columns and labels:
[1] = molecular target: T1, Gnd (GE), 6-phosphogluconate dehydrogenase (Escherichia coli, UniProt P00350); test: inhibition of purified enzyme, NADPH formation at […] nm; type: biochemical
T1 construct: full-length, C-terminal His-tag, Ni-NTA purified from E. coli, 51 kDa on SDS-PAGE
T1 sequence (P00350 1-468): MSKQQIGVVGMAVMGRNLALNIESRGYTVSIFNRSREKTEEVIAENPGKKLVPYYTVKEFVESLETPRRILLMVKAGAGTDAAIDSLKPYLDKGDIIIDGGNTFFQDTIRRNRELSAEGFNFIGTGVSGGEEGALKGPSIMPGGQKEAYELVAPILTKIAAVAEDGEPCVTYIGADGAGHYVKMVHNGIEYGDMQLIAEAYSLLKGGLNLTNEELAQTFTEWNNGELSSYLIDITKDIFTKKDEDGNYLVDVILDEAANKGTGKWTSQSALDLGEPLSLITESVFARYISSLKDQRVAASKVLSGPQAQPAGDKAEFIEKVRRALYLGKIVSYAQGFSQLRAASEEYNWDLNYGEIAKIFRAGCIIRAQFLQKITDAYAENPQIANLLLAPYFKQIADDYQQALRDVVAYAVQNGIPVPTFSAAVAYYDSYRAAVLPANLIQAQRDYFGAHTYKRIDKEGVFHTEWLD

[2] = molecular target: T2, Zwf (ZE), glucose-6-phosphate dehydrogenase (Escherichia coli, UniProt P0AC53); test: as above; type: biochemical
T2 construct: full-length, C-terminal His-tag, Ni-NTA purified from E. coli, 55 kDa on SDS-PAGE
T2 sequence (P0AC53 whole entry): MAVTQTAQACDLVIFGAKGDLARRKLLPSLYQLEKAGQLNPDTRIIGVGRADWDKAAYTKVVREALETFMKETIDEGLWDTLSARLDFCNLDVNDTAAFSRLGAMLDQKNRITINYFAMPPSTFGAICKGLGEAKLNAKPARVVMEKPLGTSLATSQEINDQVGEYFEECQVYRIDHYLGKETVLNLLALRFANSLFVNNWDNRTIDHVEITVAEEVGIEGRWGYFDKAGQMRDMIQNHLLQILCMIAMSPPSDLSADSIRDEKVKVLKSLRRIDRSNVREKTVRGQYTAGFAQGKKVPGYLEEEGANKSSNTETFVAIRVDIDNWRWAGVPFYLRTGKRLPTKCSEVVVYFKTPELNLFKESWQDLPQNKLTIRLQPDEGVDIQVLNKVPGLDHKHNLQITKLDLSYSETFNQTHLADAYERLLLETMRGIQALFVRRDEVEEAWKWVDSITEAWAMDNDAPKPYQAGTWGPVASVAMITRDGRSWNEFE

Ki [1]: ~40 µM
Ki [2]: ~40 µM
Structure (SMILES): NC(=O)C1=CN([C@@H]2O[C@H](COP(=O)(O)OP(=O)(O)OC[C@H]3O[C@@H](n4cnc5c(N)ncnc54)[C@H](OP(=O)(O)O)[C@@H]3O)[C@@H](O)[C@H]2O)C=CC1 [NADPH]
